This passage reports IC50 results from patent publication US11046690B2, “Pyridazinones and methods of use thereof” (Goldfinch Bio, Inc., priority 2018, dated 2021).

Bounds are passed on as bounds.

In this test the target is T1, TRPC5 (Homo sapiens, UniProt Q9UL62).
T1 construct: expressed in transfected cells
T1 sequence (Q9UL62 1-973): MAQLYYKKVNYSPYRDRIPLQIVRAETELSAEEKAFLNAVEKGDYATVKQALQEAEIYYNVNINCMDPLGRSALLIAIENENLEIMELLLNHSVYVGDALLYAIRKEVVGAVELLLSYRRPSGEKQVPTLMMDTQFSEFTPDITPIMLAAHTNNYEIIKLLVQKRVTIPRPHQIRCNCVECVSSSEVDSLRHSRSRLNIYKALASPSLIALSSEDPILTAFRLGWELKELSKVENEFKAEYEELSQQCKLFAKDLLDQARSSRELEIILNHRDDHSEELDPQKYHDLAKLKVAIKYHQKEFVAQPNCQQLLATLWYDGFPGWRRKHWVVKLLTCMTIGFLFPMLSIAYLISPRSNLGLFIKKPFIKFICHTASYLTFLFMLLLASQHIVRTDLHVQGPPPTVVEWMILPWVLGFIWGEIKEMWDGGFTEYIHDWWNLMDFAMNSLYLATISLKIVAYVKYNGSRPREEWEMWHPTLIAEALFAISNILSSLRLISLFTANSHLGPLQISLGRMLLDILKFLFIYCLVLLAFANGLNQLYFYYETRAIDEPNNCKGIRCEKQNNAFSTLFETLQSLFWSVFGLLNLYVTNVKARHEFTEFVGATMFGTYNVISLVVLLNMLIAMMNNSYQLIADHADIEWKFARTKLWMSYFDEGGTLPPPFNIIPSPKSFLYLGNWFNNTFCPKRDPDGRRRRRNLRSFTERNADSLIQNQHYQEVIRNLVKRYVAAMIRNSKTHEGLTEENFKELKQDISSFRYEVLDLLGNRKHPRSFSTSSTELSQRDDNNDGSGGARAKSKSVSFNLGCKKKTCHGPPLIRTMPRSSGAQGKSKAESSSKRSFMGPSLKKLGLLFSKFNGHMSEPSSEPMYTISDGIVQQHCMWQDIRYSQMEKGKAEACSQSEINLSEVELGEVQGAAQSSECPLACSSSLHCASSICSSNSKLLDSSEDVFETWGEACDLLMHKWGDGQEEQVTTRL
Put plainly: TRPC5 activity assay (FLIPR calcium fluorescence, Riluzole stimulation). In kind it is cell-based. Particulars: HEK-TREx hTRPC5 cells, 30 μM Riluzole stimulation; read-out: TRPC5 (IC50 class). The procedure:
ICLN-1633 cells (HEK-TREx hTRPC5) expressing TRPC5 were generated as follows. Commercially available HekTrex-293 cells were seeded at 0.7×10^6 cells/well in a 1×6-well plate 24 hrs prior to transfection using 2 mL cell growth media containing no antibiotics (1× DMEM/high glucose (Hyclone #SH30022.02); 10% fetal bovine serum (Sigma) 2 mM sodium pyruvate, 10 mM HEPES). […] On day 2, 2 μg of plasmid DNA plus 6 μl of Xtreme-GENE HP reagent in Optimem (200 μl total volume) was prepared and incubated for 15 min at room temperature. This plasmid solution was then gently overlayed dropwise onto each well and the plate was gently swirled to mix complex with the media for approximately 30 seconds. Transfected cells were incubated at 37° C. in a 10%/CO2 incubator for 24 hrs. The transfected cells were harvested and transferred into 2×150 mm dishes containing cell growth media with no antibiotics at 37° C.
The next day selection was initiated to generate a stable pool by adding cell growth media containing 150 μg/mL Hygromycin and 5 μg/mL Blasticidin and cells were allowed to grow. Media with the selection agent was changed every 1-2 days as needed to remove dead cells. After 7 days, the hygromycin concentration was reduced to 75 μg/mL and cells growth was allowed to continue.
Single clones were selected as follows. The stable pool was diluted to 10 cells/mL and seeded (100 μl/well) into 24×96 well plates (˜1 cell/well) and allowed to grow for 7 days in cell growth media. Fresh media (100 μl) was added and the cells allowed to grow for another 1-2 weeks and then stored frozen or used immediately.
10-point dose response curves were generated using the Echo-550 acoustic dispenser. Compound source plates were made by serially diluting compound stocks to create 10 mM, 1 mM, and 0.1 mM solutions in DMSO into Echo certified LDV plates. The Echo then serially spotted 100%/DMSO stock solutions into source dose response plates to generate a 4-fold dilution scheme. 100%0/DMSO was added to the spotted dose response plates to bring the final volume to 5 μl. 300 nl of the dose response stock plate was then spotted into pre-incubation and stimulation assay plates. 50 μl of pre-incubation buffer and 100 μl of stimulation buffer was then added to the plates resulting in a final assay test concentration range of 30 μM to 0.0001 μM with a final DMSO concentration of 0.3%.
Human ICLN-1633 cells expressing were plated onto 384 well, black PDL-coated microplates and maintained in TRPC5 growth media the day prior to use for experiments. TRPC5 expression was induced by the application of 1 μg/mL tetracycline at the time of plating. […] Cells are incubated at room temperature, protected from light, for 60-90 minutes. After the incubation period, the dye is removed and replaced with 10 μl of EBSS. Cell, pre-incubation and stimulation plates are loaded onto the FLIPR-II and the assay is initiated. The FLIPR measures a 10 second baseline and then adds 10 μl of 2X compounds (or controls). Changes in fluorescence are monitored for an additional 5 minutes. After the 5 minute pre-incubation, 20 μl of 2X Riluzole (with 1X compound or controls) is added to the cell plate. The final Riluzole stimulation concentration in the assay is 30 μM. After the Riluzole addition, changes in fluorescence are monitored for an additional 5 minutes.
Compound modulation of TRPC5 calcium response was determined as follows. After the Englerin A, fluorescence was monitored for a 5-minute period. The maximum relative fluorescence response (minus the control response of 1 μM of an internal control compound known to maximally block TRPC5 calcium response, the “REF INHIB” in the formula below) was captured and exported from the FLIPR.
Compound effect is calculated as % inhibition using the following formula:
[formula] wherein “RFU” is the relative fluorescent units.

For `CC1Cc2c(ncnc2Oc2ccc(F)cc2Cl)CN1c1cn[nH]c(=O)c1Cl` (single isomer, unassigned) [Compound 117], the IC50 is under 50 nM.
The result for `O=c1[nH]ncc(N2CCc3c(ncnc3Oc3ccc(F)cc3Cl)C2)c1Cl` [Compound 104] reads under 50 nM.
